Measurements taken from patent US20110293653A1, “ANTAGONISTS OF MIR-155 FOR THE TREATMENT OF INFLAMMATORY LIVER DISEASE” (UNIVERSITY OF MASSACHUSETTS, priority 2010, published 2011).
“Also recorded” adds a separate entry of the source. Where a SMILES comes first, the peptide text is derived from it. The star is where a group is joined. Cbz = O=C(OCc1ccccc1)*

Tested on: miR155
Experiment: miR155 expression (qPCR) in RAW cells after ethanol and/or LPS stimulation with NF-κB inhibitor
Format: cell-based
Details: RAW cells pretreated 48 h with ethanol (50 mM) and MG-132 (0.25 μM) or Bay 11-7082 (0.1 uM), LPS 100 ng/mL 2 h
Protocol: FIG. 8. […] RAW cells were exposed or not to ethanol (50 mM) and MG-132 (0.25 μM) for 48 hours and were further stimulated with LPS (100 ng/mL) for 2 hours. Expression of miR155 was assayed by qPCR and data were normalized to sno202 control. The fold increase in the expression of miR155 versus nonstimulated cells is shown. Data represent the mean value (s.e.m. as error bars) of at least three independent experiments. Statistically significant differences are shown.
C. Cell culture and reagents. RAW 264.7 macrophages were purchased from American Type Culture Collection and maintained in Dulbecco's modified medium (Invitrogen Life Technologies, Carlsbad, Calif.) containing 10% FBS (HyClone, South Logan, Utah) at 37° C. in a 5% CO2 atmosphere. […]
E. RNA analysis. RNA was purified using the RNeasy kit (Qiagen Sciences, Maryland, USA) or mirVana™ miRNA Isolation Kit (Ambion) if miRs were to be analyzed. […] Quantitative RT-PCR analyses for miR-125b, miR-146aa, miR155 and sno202, used as normalizing control, were performed using TaqMan miRNA assays with reagents, primers, and probes obtained from Ambion. […] Real-time quantitative polymerase chain reaction was performed using the iCycler (Bio-Rad Laboratories Inc., Hercules, Calif.), as described previously (Romics et al., supra). […] Relative expression was calculated using the comparative threshold cycle (Ct) method. […]

`Cc1ccc(S(=O)(=O)/C=C/C#N)cc1` [Bay 11-7082] was tested, and the “miR155 levels after ethanol and/or LPS stimulation” value was “decrease”.

For `CC(C)C[C@@H](C=O)NC(=O)[C@H](CC(C)C)NC(=O)[C@H](CC(C)C)NC(=O)OCc1ccccc1` [MG-132] (Cbz-Leu-Leu-Leu-aldehyde), the “miR155 levels after ethanol and/or LPS stimulation” value was “decrease; also recorded: prevented miR155 increase”.
